These results are taken from patent publication US20180042882A1, “C16:1n7-PALMITOLEATE AND DERIVATIVES THEREOF FOR TREATING OBESITY, PROMOTING WEIGHT LOSS, AND SUPPORTING WEIGHT MANAGEMENT” (Tersus Life Sciences, LLC, priority 2015, published 2018).

Series [1] deals with FASN. The series can be described thus: qPCR mRNA expression in bovine adipocyte cultures. The class given is cell-based. The settings on record: compared to untreated control cells; P<0.05. The text has this:
(§1) Bovine adipocyte cultures were used to determine if addition of exogenous palmitoleic acid (C16:1n7) altered lipogenesis in vitro (Burns et al., 2012a). Adipocytes were harvested from the bovine cultures on day 6 and day 12 and analyzed using GLC and qPCR. […] In contrast, increasing concentrations of palmitoleic acid led to a decrease in palmitic acid (C16:0), stearic acid (C18:0), and oleic acid (C18:1) levels (P<0.05). FIG. 2 illustrates de novo lipogenesis and β-oxidation in an adipocyte after exogenous palmitoleic acid addition.
(§2) The desaturation ratio of C18:1 cis-9/C18:0 decreased (P<0.05) in response to increasing concentrations of palmitoleic acid, which was consistent with the observed decrease in SCD-1 mRNA expression.
Background: Quantitative PCR measures a nucleic acid by following its amplification.

The subject of series [2] is ELOVL6. The series can be described thus: qPCR mRNA expression in bovine adipocyte cultures. The class given is cell-based. The following applies: compared to untreated control cells; P<0.05.
From the text: as §1, §2

Series [3] concerns SCD-1. As to the kind of experiment: qPCR mRNA expression in bovine adipocyte cultures. The following applies: compared to untreated control cells; P<0.05. It is filed as cell-based.
From the text: as §1, §2

In series [4] the test system is bovine adipocytes. The series can be described thus: Fatty acid levels and desaturation (13C18:0, GLC-MS) in fatty acid supplemented bovine adipocytes. The settings on record: P<0.05. The class given is cell-based. How it is done:
In addition, cells were incubated with ^13C2 and ^13C18:0 on day 6 to estimate lipogenic and desaturation rates using GLC-MS.

Series [5] concerns Acyl-CoA dehydrogenase, long chain (ACADL). The series can be described thus: Expression of fatty acid oxidation genes in bovine adipocytes. It is filed as cell-based. The settings on record: normalized to EIF3K and UXT; P≦0.07. An excerpt:
(§3) The effect of palmitoleic acid supplementation on fatty acid oxidation in bovine adipocytes (see Kadegowda et al., 2011a) was examined by measuring the expression levels of Acyl-Coenzyme A oxidase 2 (ACOX2), Acyl-CoA dehydrogenase, long chain (ACADL), Phytanoyl-CoA 2-hydroxylase (PHYH), Caveolini (CAV1) and Adipose differentiation-related protein (ADEP). The geometric mean of Eukaryotic translation initiation factor 3, subunit k (EIF3K) and Ubiquitously expressed transcript (UXT) was used for normalization.

Series [6] has as its system Phytanoyl-CoA 2-hydroxylase (PHYH). The description is as above. It is filed as cell-based. The following applies: normalized to EIF3K and UXT.
From the text: as §3

Series [7] deals with bovine adipocytes. As to the kind of experiment: Rate of lipogenesis with [1-13C]acetate in bovine adipocytes. It is filed as cell-based. The settings on record: 2.5 mM [1-13C]acetate on day 6; compared to controls.
From the text: as §2

Series [8] deals with bovine adipocytes. As to the kind of experiment: Fatty acid composition of bovine adipocyte cultures with exogenous palmitoleic acid (GLC). It is filed as cell-based. The following applies: P<0.05.
From the text: as §1, §2

The nature of series [9]: Infusion of 13C16:1n7 in lambs, uptake and utilization. It is filed as in vivo. The settings on record: 5 mg/kg level, intravenous infusion. The method, then:
This level of palmitoleic acid supplementation was selected based on previous experiments where lambs were infused with varying levels (0, 2, or 5 mg/kg) of ^13C16:1n7 to assess uptake and utilization in adipose tissues. […] This 5 mg/kg level is based on intravenous infusion levels and thus is adjusted for estimated ruminal bypass and intestinal absorption rates for dietary monounsaturated fatty acids for this oral feeding study.

In series [10] the test system is CTP-1. The series can be described thus: Enzymes involved in β-oxidation after exogenous palmitoleic acid. The class given is cell-based, bovine. The settings on record: addition of exogenous palmitoleic acid. An excerpt:
As such, C16:1n7-palmitoleate, derivatives thereof, pharmaceutically acceptable salts thereof, or a combination thereof, are useful in methods for reducing adipocyte hypertrophy and excess adipose tissue deposition.

Setting [11] is: increasing concentrations of palmitoleic acid (50, 150 and 300 μM), day 6 and day 12.
The mark [12] stands for this setting: increasing concentrations of palmitoleic acid.

The structures appear in SMILES notation.

For the compound `CCCCCC/C=C\CCCCCCCC(=O)O` [palmitoleic acid], the “FASN mRNA expression levels” value in [1] is on record as “reduction”. For the same compound, the “ELOVL6 mRNA expression levels” value in [2] is “reduction”. Moreover, the “SCD-1 mRNA expression levels” value in series [3] is on record as “reduction”. In addition, the “13C18:1 cis-9 levels” value in series [4] (after 12 h of 13C18:0 incubation, compared with all other treatments) is “lower”. Besides, the “C18:1 cis-9/C18:0 ratio” value in [4] (compared with all other treatments) is reported as “lower”. In series [4] (compared with control cells), the “C16: levels in supplemented cells” value is given as “elevated”, the “C18:1 cis-11 levels in supplemented cells” value is on record as “elevated” and the “C20:1 cis-13 levels in supplemented cells” value was “elevated”. For the same compound, the “increase in ACADL expression” value in [5] is reported as 2.36 fold. Further, the “increase in PHYH expression” value in [6] is 95.5 fold. Besides, the rate of lipogenesis entry in series [7] was “lower rate of lipogenesis”. In series [8] (in response to increasing concentrations of palmitoleic acid), the “desaturation ratio of C18:1 cis-9/C18:0” value is reported as “decreased”. Also, in [8] (setting [11]), the “cis-11 vaccenic acid (C18:1c11) levels in adipocytes” value is given as “linear increase”, the “cis-13 eicosenoic acid (C20:1c13) levels in adipocytes” value is listed as “linear increase” and the “total fatty acid levels in adipocytes” value was “linear increase”. In addition, the “Palmitoleic acid levels in adipocytes” value in series [8] (increasing concentrations of palmitoleic acid (50, 150 and 300 μM), harvested day 6 and day 12) is “linear increase”. For the same compound, in series [8] (setting [12]), the “oleic acid (C18:1) levels in adipocytes” value is reported as “decrease”, the “palmitic acid (C16:0) levels in adipocytes” value is “decrease” and the “stearic acid (C18:0) levels in adipocytes” value is on record as “decrease”. In addition, the blood glucose levels entry in series [9] (compared to control) is “altered”. Further, the “concentrations of 13C16:1n7 in serum” value in series [9] (lambs infused with 0, 2, or 5 mg/kg) is reported as “greatest concentrations”. Moreover, in series [10], the “CTP-1 (enzyme involved in β-oxidation) regulation” value is on record as “upregulates”.
